According to patent US20230226160A1, “COMPOSITIONS AND METHODS FOR TREATING BACTERIAL INFECTIONS” (MUCPHARM PTY LTD, priority 2020, published 2023):
“Also recorded” adds a separate entry of the source.

How the values were obtained:
Assay type in all cases: cell-based
[1] = tested on: Staphylococcus aureus ATCC 6538 biofilms; assay: Anti-biofilm activity on preformed 24-hour/48-hour Staphylococcus aureus ATCC 6538 biofilms, 4-hour treatment, crystal violet, 590 nm; details: 24-hour biofilm
Procedure: The plates were then incubated at 37° C. for 4 hrs. After treatment, the cells were fixed with 99% methanol and stained with 1% crystal violet. The stained biofilm was dissolved with 33% acetic acid and the absorbance was read at 590 nm. The results were analyzed using Prism GraphPad software.

[2] = tested on: Pseudomonas aeruginosa PA01 398 biofilms; assay: Anti-biofilm activity on 48-hour Pseudomonas aeruginosa PA01 398 biofilms, 4-hour combined or staged treatment, crystal violet; details: NAC 25 and 50 mg/ml single agent, FIG. 9
Procedure: Each plate was then incubated at 37° C. for 24 hrs and, afterwards, the plates were treated with various concentrations of acetylcysteine, bromelain, gentamicin, ampicillin and combinations thereof. The plate was then incubated at 37° C. for 4 hrs.
(§1) After treatment, the cells were fixed with 99% methanol and stained with 1% crystal violet. The stained biofilm was dissolved with 33% acetic acid and the absorbance was read at 590 nm. The results were analyzed using Prism GraphPad software.
Each plate was then incubated at 37° C. for 24 hrs and, afterwards, the plates were treated with various concentrations of acetylcysteine, bromelain and either gentamicin or ampicillin. The plate was then incubated at 37° C. for 4 hrs. After treatment, the cells were fixed with 99% methanol and stained with 1% crystal violet. The stained biofilm was dissolved with 33% acetic acid and the absorbance was read at 590 nm. The results were analyzed using Prism GraphPad software.
In the first series of experiments, the results of which are shown in FIG. 12, 48-hour Pseudomonas aeruginosa PA01 398 biofilms were treated for 4-hours with the compositions shown in the table including ampicillin (50-200 μg/mL), bromelain (25 μg/mL) and acetylcysteine (10 mg/mL) in 5% glucose. […]

[3] = tested on: Pseudomonas aeruginosa ATCC 31461 biofilms; assay: Anti-biofilm activity on 48-hour Pseudomonas aeruginosa ATCC 31461 biofilms, 4-hour treatment, crystal violet; details: FIG. 6
Procedure: Each plate was then incubated at 37° C. for 24 hrs and, afterwards, the plates were treated with various concentrations of acetylcysteine, bromelain and/or ampicillin. The plate was then incubated at 37° C. for 4 hrs.
as §1

biofilm = assay: Inventor's summary statements on biofilm experiments; details: at therapeutically appropriate dosages

Compound | effect on biofilm eradication ([1]; acetylcysteine 20 mg/mL single treatment, 4-hour, FIG. 3) | effect on biofilm as single agent [2] | effectiveness on biofilm ([3]; acetylcysteine 25 mg/mL single agent) | effectiveness on biofilm ([3]; acetylcysteine 50 mg/ml single agent) | effect of acetylcysteine alone on biofilm (biofilm) | biofilm eradication ([1]; gentamicin 12 μg/ml single agent, 4-hour, FIG. 5) | effectiveness of single agent (eradication) ([1]; gentamicin 16 μg/ml single agent, compared to the concentration in combination, FIG. 5) | biofilm eradication ([1]; gentamicin 35 μg/ml single agent, most effective gentamicin treatment)
CC(=O)N[C@@H](CS)C(=O)O [acetylcysteine] | no effect on biofilm eradication | antagonistic | not effective | moderately effective | no appreciable effect; also recorded: relatively ineffective | – | – | –
gentamicin | – | – | – | – | – | 2% | 5% | approximately 60%
